# Like-named read-outs stand apart in the source and are kept apart here.
# How the values were obtained:
# [1] = system: RKO WT cells; assay: cells; format: cell-based, human; conditions: Homo sapiens, 316 pM to 10 μM
# Description: RKO WT, VHL KO, CRBN KO and CRBN/VHL dKO cells were cultured in Dulbecco’s modified Eagle’s medium supplemented with 10% FCS and 1% penicillin–streptomycin. RKO CRBN KO and VHL KO were generated previously.[45] RKO CRBN/VHL dKO cells were generated by transiently expressing pSpCas9(BB)-2A-GFP (PX458) (Addgene 48138) loaded with a short guide RNA (sgRNA) targeting VHL (Fwd: […], Rev: […]) in RKO CRBN KO cells. Clones were single cell seeded and checked for VHL and CRBN double deletion via Western blot or PCR on genomic DNA (gDNA).
# Cells were seeded in 96-well plates at a cell density of 3750 cells per well and treated for 3 days with DMSO or drug at ten √10 serial diluted concentrations. […] Cell viability was assessed using the CellTiter-Glo assay (CellTiter-Glo Luminescent Cell Viability Assay, Promega G7573) according to manufacturer instructions. Luminescence signal was measured on a Multilabel Plate Reader Platform Victor X3 model 2030 (PerkinElmer). Survival curves and EC50 values were determined using GraphPad Prism v.10.0.3 by fitting a nonlinear regression to the log10-transformed drug concentration and the relative viability after normalization of each data point to the mean luminescence of the lowest drug concentration.
# [2] = target: BRD4 (Homo sapiens, UniProt O60885); assay: Live cell kinetic HiBiT degradation assay, HiBiT-BRD4 HEK293 cells (parental, CRBN KO, VHL KO); format: cell-based; conditions: for EC50: HiBiT-BRD4 CRISPR knock-in HEK293 cells, live cell kinetic degradation, 24 h, read-out: Dmax 50 BRD4; for λmax BRD4 (degradation rate): HiBiT-BRD4 knock-in HEK293 cells; for fold increase in degradation of BRD4 (Dmax 50) vs matched pair: 23 vs 1, 26 vs 23, 30 vs 2, HiBiT-BRD4 HEK293 cells
# Description: HEK293 HiBiT-BRD2 (LgBiT stable), HEK293 HiBiT-BRD3 (LgBiT stable), and HEK293 HiBiT-BRD4 (LgBiT stable) were created using CRISPR/Cas9 to insert at HiBiT tag at the N-terminal genomic loci of BRD2, BRD3, or BRD4 in a cell line stably expressing LgBiT protein as described previously.[23]
# For kinetic degradation experiments, HEK293 HiBiT-BRD2, 3, or 4 (LgBiT stable) cells and HEK293 HiBiT-BRD4 (LgBiT) CRBN KO and VHL KO cells were plated at 20,000 cells/well in DMEM +10% FBS in white 96-well tissue culture plates and allowed to adhere overnight. The next day, media was removed and 90 μL of prewarmed CO2-independent medium (Gibco) containing Endurazine (Promega) at a 1:100 dilution from stock was added. Plates were incubated at 37 °C for 3 h to allow luminescence to equilibrate. A threefold dilution series of each PROTAC at 10x the desired final concentration was prepared (with the amount of DMSO in each treatment condition kept constant). After luminescence equilibration, a preread luminescence measurement was taken (prior to compound addition) to allow for baseline normalization to account for possible plating differences. Cells were then treated with 10 μL of the prepared PROTAC dilution series (in triplicate or quadruplicate). Treated plates were placed in a GloMax Discover luminometer (Promega) prewarmed to 37 °C and luminescence measurements were obtained every 7 min for 24 h. Kinetic degradation plots were obtained by first normalizing time course luminescence readings in each well to the preread measurement, then to the average value of the DMSO only control at each time point. Data was analyzed using GraphPad Prism (version 8) and excel. Dmax values were identified as the lowest luminescence reading in each well. Rate constant values were calculated using a one phase exponential decay Y = (Y0-Plateau) e(K*^X) + Plateau using Prism (Y0 constrained to 1). Dmax 50 values were calculated by plotting Dmax as a function of concentration, then fitting plots using the following equation: [drawing 1] to determine IC50.
# HiBiT-BRD4 (LgBiT stable) HEK293 cells (Promega) were used to generate both VHL KO HiBiT-BRD4 (LgBiT stable) and CRBN KO HiBiT-BRD4 (LgBiT stable) cell lines. For VHL, gRNAs targeting exon 1 ([…]) and exon 2 ([…]) and for CRBN, gRNAs targeting exon 3 ([…]) and exon 6 ([…]) were purchased from IDT DNA (Table 5). For each gRNA, tracrRNA/crRNA duplexes were formed by combining 10 μL of 100 μM Alt-R […] (IDT), 100 μM Alt-R crRNA (IDT) and heating at 95C for 5 min, then were allowed to cool to room temp for 20 min. RNPs were then formed by combining 75 pmol Cas9 (IDT) with 2.4 μL total of prepared tracrRNA/crRNA complex (1.2 μL for each gRNA targeting each exon). Cells were then trypsinized and resuspended at 10,000,000 cells/mL in 1 mL of Mirus Ingenio electroporation solution. Three μL of 100 μM electroporation enhancer (Mirus) was added, along with 3 μL of RNP solution. Cells were electroporated in 2 mm cuvettes using a BioRad system (190 V, 950 μF, infinite resistance) and were then plated in a T75 flask in full growth medium to allow for recovery. After recovery from electroporation, knockout pools were sorted for single cells in 96-well tissue culture treated plates. Clonal populations which expanded from single cells were then screened for loss of function of VHL by treating with MZ1, or loss of function of CRBN by treating with dBET6, using a HiBiT-BRD4 luminescent readout assay. Genomic DNA isolated from candidate clones was then PCR-amplified (Table of primers below), Gibson-assembled into a pF1A plasmid backbone, transformed into E. coli., and then Sanger sequenced to confirm presence of indels in the targeted exons. […] VHL exon 3 carried a 19 bp deletion on one allele, and a 1 bp insertion on the other allele, both occurring after the premature stop codon in exon 1.
# [3] = WT RKO, n = 3 (Table S4), read-out: EC50 RKO
Structure (SMILES),"EC50 [1, 3] [nM]",EC50 [2] [nM],λmax BRD4 (degradation rate) [2] [h⁻¹],fold increase in degradation of BRD4 (Dmax 50) vs matched pair [2] [fold],"EC50 ([1]; 72 h, 3 days, n = 3 (Figures 5 and 8C, Table S5), read-out: EC50 RKO WT) [nM]"
"Cc1ncsc1-c1ccc(CNC(=O)[C@@H]2C[C@@H](O)CN2C(=O)[C@@H](NC(=O)COCC(C)(COCCOCCOCCOC(=O)C[C@@H]2N=C(c3ccc(Cl)cc3)c3c(sc(C)c3C)-n3c(C)nnc32)COCCOCCOCCN2CCN(c3cccc4c3C(=O)N(C3CCC(=O)NC3=O)C4=O)CC2)C(C)(C)C)cc1 (mixture of isomers) [AB3029 (31), (17S)-11-((2-(2-(2-(4-(2-(2,6-dioxopiperidin-3-yl)-1,3-dioxoisoindolin-4-yl)piperazin-1-yl)ethoxy)ethoxy)ethoxy)methyl)-17-((2S,4R)-4-hydroxy-2-((4-(4-methylthiazol-5-yl)benzyl)carbamoyl)pyrrolidine-1-carbonyl)-11,18,18-trimethyl-15-oxo-3,6,9,13-tetraoxa-16-azanonadecyl 2-((S)-4-(4-chlorophenyl)-2,3,9-trimethyl-6H-thieno[3,2-f][1,2,4]triazolo[4,3-a][1,4]diazepin-6-yl)acetate]",1020,15,1.99,,
"Cc1ncsc1-c1ccc(CNC(=O)[C@@H]2C[C@@H](O)CN2C(=O)[C@@H](NC(=O)COCC(C)(COCCOCCOCCOC(=O)C[C@@H]2N=C(c3ccc(Cl)cc3)c3c(sc(C)c3C)-n3c(C)nnc32)COCCOCCOCCN2CCN(c3cc4c(cc3F)C(=O)N(C3CCC(=O)NC3=O)C4=O)CC2)C(C)(C)C)cc1 (mixture of isomers) [AB3030 (32), (17S)-11-((2-(2-(2-(4-(2-(2,6-dioxopiperidin-3-yl)-6-fluoro-1,3-dioxoisoindolin-5-yl)piperazin-1-yl)ethoxy)ethoxy)ethoxy)methyl)-17-((2S,4R)-4-hydroxy-2-((4-(4-methylthiazol-5-yl)benzyl)carbamoyl)pyrrolidine-1-carbonyl)-11,18,18-trimethyl-15-oxo-3,6,9,13-tetraoxa-16-azanonadecyl 2-((S)-4-(4-chlorophenyl)-2,3,9-trimethyl-6H-thieno[3,2-f][1,2,4]triazolo[4,3-a][1,4]diazepin-6-yl)acetate]",402,7.4,2.19,,
"Cc1ncsc1-c1ccc(CNC(=O)[C@@H]2C[C@@H](O)CN2C(=O)[C@@H](NC(=O)COCC(C)(COCCOCCOCCNc2cccc3c2C(=O)N(C2CCC(=O)NC2=O)C3=O)COCCOCCOCCOC(=O)C[C@@H]2N=C(c3ccc(Cl)cc3)c3c(sc(C)c3C)-n3c(C)nnc32)C(C)(C)C)cc1 (mixture of isomers) [AB3062 (23), (17S)-11-((2-(2-(2-((2-(2,6-dioxopiperidin-3-yl)-1,3-dioxoisoindolin-4-yl)amino)ethoxy)ethoxy)ethoxy)methyl)-17-((2S,4R)-4-hydroxy-2-((4-(4-methylthiazol-5-yl)benzyl)carbamoyl)pyrrolidine-1-carbonyl)-11,18,18-trimethyl-15-oxo-3,6,9,13-tetraoxa-16-azanonadecyl 2-((S)-4-(4-chlorophenyl)-2,3,9-trimethyl-6H-thieno[3,2-f][1,2,4]triazolo[4,3-a][1,4]diazepin-6-yl)acetate]",420,11,1.40,3.4,
"Cc1ncsc1-c1ccc(CNC(=O)[C@@H]2C[C@@H](O)CN2C(=O)[C@@H](NC(=O)COCC(C)(COCCOCCOCCNc2cccc3c2C(=O)N(C2CCC(=O)NC2=O)C3=O)COCCOCCOC(=O)C[C@@H]2N=C(c3ccc(Cl)cc3)c3c(sc(C)c3C)-n3c(C)nnc32)C(C)(C)C)cc1 (mixture of isomers) [AB3064 (25), (14S)-8-((2-(2-(2-((2-(2,6-dioxopiperidin-3-yl)-1,3-dioxoisoindolin-4-yl)amino)ethoxy)ethoxy)ethoxy)methyl)-14-((2S,4R)-4-hydroxy-2-((4-(4-methylthiazol-5-yl)benzyl)carbamoyl)pyrrolidine-1-carbonyl)-8,15,15-trimethyl-12-oxo-3,6,10-trioxa-13-azahexadecyl 2-((S)-4-(4-chlorophenyl)-2,3,9-trimethyl-6H-thieno[3,2-f][1,2,4]triazolo[4,3-a][1,4]diazepin-6-yl)acetate]",904,31,1.09,,

# Now those with a lower EC50 [1, 3], led by results:
"EC50 [1, 3] [nM]",EC50 [2] [nM],λmax BRD4 (degradation rate) [2] [h⁻¹],fold increase in degradation of BRD4 (Dmax 50) vs matched pair [2] [fold],"EC50 ([1]; 72 h, 3 days, n = 3 (Figures 5 and 8C, Table S5), read-out: EC50 RKO WT) [nM]",Structure (SMILES)
214,2.9,1.51,,,"Cc1ncsc1-c1ccc(CNC(=O)[C@@H]2C[C@@H](O)CN2C(=O)[C@@H](NC(=O)COCC(C)(COCCOCCOCCNc2cc3c(cc2F)C(=O)N(C2CCC(=O)NC2=O)C3=O)COCCOCCOC(=O)C[C@@H]2N=C(c3ccc(Cl)cc3)c3c(sc(C)c3C)-n3c(C)nnc32)C(C)(C)C)cc1 (mixture of isomers) [AB3065 (28), (14S)-8-((2-(2-(2-((2-(2,6-dioxopiperidin-3-yl)-6-fluoro-1,3-dioxoisoindolin-5-yl)amino)ethoxy)ethoxy)ethoxy)methyl)-14-((2S,4R)-4-hydroxy-2-((4-(4-methylthiazol-5-yl)benzyl)carbamoyl)pyrrolidine-1-carbonyl)-8,15,15-trimethyl-12-oxo-3,6,10-trioxa-13-azahexadecyl 2-((S)-4-(4-chlorophenyl)-2,3,9-trimethyl-6H-thieno[3,2-f][1,2,4]triazolo[4,3-a][1,4]diazepin-6-yl)acetate]"
165,3,1.98,3.7,260,"Cc1ncsc1-c1ccc(CNC(=O)[C@@H]2C[C@@H](O)CN2C(=O)[C@@H](NC(=O)COCC(C)(COCCOCCOCCNc2cc3c(cc2F)C(=O)N(C2CCC(=O)NC2=O)C3=O)COCCOCCOCCOC(=O)C[C@@H]2N=C(c3ccc(Cl)cc3)c3c(sc(C)c3C)-n3c(C)nnc32)C(C)(C)C)cc1 (mixture of isomers) [AB3063 (26), (17S)-11-((2-(2-(2-((2-(2,6-dioxopiperidin-3-yl)-6-fluoro-1,3-dioxoisoindolin-5-yl)amino)ethoxy)ethoxy)ethoxy)methyl)-17-((2S,4R)-4-hydroxy-2-((4-(4-methylthiazol-5-yl)benzyl)carbamoyl)pyrrolidine-1-carbonyl)-11,18,18-trimethyl-15-oxo-3,6,9,13-tetraoxa-16-azanonadecyl 2-((S)-4-(4-chlorophenyl)-2,3,9-trimethyl-6H-thieno[3,2-f][1,2,4]triazolo[4,3-a][1,4]diazepin-6-yl)acetate]"

# Source: publication PMC11638965, “Leveraging Dual-Ligase Recruitment to Enhance Protein Degradation via a Heterotrivalent Proteolysis Targeting Chimera” (Journal of the American Chemical Society, 2024)
